Assay results reported in PMC3454376, “Salidroside Improves Behavioral and Histological Outcomes and Reduces Apoptosis via PI3K/Akt Signaling after Experimental Traumatic Brain Injury” (PLoS ONE, 2012).

Tested on: Bcl-2/Bax ratio
Test: Western blot, whole cell and mitochondrial fraction
Assay type: in vivo, mice
Conditions: 20 mg/kg ip 10 min after CCI
Method: Three sets of experiments were performed. The first set was to investigate the protective effects of salidroside. All animals were randomized into 1 of 3 groups (sham injury, CCI + vehicle, CCI + SALD 20). Surgery/injury, behavioral testing, and tissue analyses were performed by different individuals. Behavioral testing and tissue analyses were performed by individuals blinded to the treatment group. Salidroside (Cayman Chemical, Ann Arbor, MI, USA) dissolved in normal saline (0.25 mL) or a corresponding volume of vehicle (saline) was administered intraperitoneally 10 min following injury. Testing after injury was completed as follows: 1) behavioral testing at days 1, 4, 7, 14, 21, and 28 (n = 8–10 mice/group); 2) cresyl violet staining at day 28 (n = 9 mice/group); 3) histology, determination of brain water content, and western blot analysis at day 1 or 3 (n = 5–6 mice/group). To determine the optimal dose of salidroside, a pilot study was performed using 2 different doses (20 and 50 mg/kg) administered 10 min after injury, and neurological deficits and tissue damage were evaluated as the main outcomes. […] Protein concentration was determined by Bradford reagent spectrophotometrically at A595. […] The relative intensity of protein signals was normalized to the corresponding β-actin intensity and was quantified by densitometric analysis with the use of Image J software. […]

## OC[C@H]1O[C@@H](OCCc2ccc(O)cc2)[C@H](O)[C@@H](O)[C@@H]1O [SALD, salidroside]
Day 1, P<0.05
  mitochondrial Bcl-2/Bax ratio, % of the level in vehicle injured brains: 150.6%
Whole cell level
  whole cell Bcl-2/Bax ratio, slight increase versus vehicle: did not reach statistical significance
